Data set [1] has as its system SHI-1, an AML cell line with the genetic aberrancy t(6;11). In words: Apoptosis assay (Annexin-V/propidium iodide) in t(6;11) SHI-1 cells. The format is cell-based. The conditions noted are these: for apoptotic and dead cells: relative to DMSO; for cytotoxic activity on t(6;11) AML cells (cell death): SHI-1, 24 h after treatment, compared with TDZ. How it is done:
(§1) Apoptosis was evaluated by double staining with Annexin-V/propidium iodide (Roche Biochemicals, Indianapolis, IN) and analyzed using Cytometer F C500 (Beckman Coulter, Brea, CA). Increased apoptosis was calculated and expressed as the percentage of Annexin-V-positive and propidium iodide-positive cells compared to those exposed to DMSO.

Data set [2] has as its system other AML cell lines harboring other genetic mutations (HL60, NOMO1, SKNO-1). In words: Apoptosis assay in non-t(6;11) AML cell lines. Type of data set: cell-based. The note with it: 24 and 48 h. How it is done: as §1
The subject of data set [3] is t(6;11) SHI-1 cells. Put plainly: Colonies forming assay in t(6;11) SHI-1 cells. Type of data set: cell-based. The conditions noted are these: 24 h pre-treatment, viable cells seeded in drug-free condition. How it is done:
(§2) After 24 h of treatment, a total of 5×10^2 ML2, SHI-1, HL60, SKNO-1 or NOMO-1 cells and 3×10^3 primary blasts from patients with t(6;11)—rearranged AML were seeded into 500 μl of MethoCult™ (H4230 and H4534 respectively, Stemcell Technologies, Meda M B, Italy), in 24-well plates and incubated at 37° C. Fourteen days after seeding, an adequate volume of a 1:6 solution of 3-[4,5-dimethylthiazol-2-yl]-2,5-diphenyltetrazolium bromide (MTT, Sigma-Aldrich-Merck) in Hanks' was added to semisolid medium. Images were acquired by optical microscope with camera, and colonies were counted using ImageJ software.

The test system of data set [4] is non-t(6;11) HL60, NOMO-1, SKNO-1 cells. In words: Colonies forming assay in non-t(6;11) AML cell lines. Type of data set: cell-based. The conditions noted are these: 24 h of treatment, other AML cell lines. The procedure:
as §2

Data set [5] relates to primary cultures from patients with t(6;11) AML. Put plainly: Apoptosis assay in primary t(6;11) AML cultures. Type of data set: cell-based. The note with it: primary t(6;11) AML compared with non-t(6;11)-AML; 24 and 48 h. How it is done: as §1
Data set [6] relates to healthy bone marrow (HBM) cells. Put plainly: Apoptosis assay in healthy bone marrow cells. Type of data set: cell-based. The conditions noted are these: 24 and 48 h. The procedure: as §1
Data set [7] deals with t(6;11)-AML primary cells. Put plainly: Colonies forming assay in t(6;11)-AML primary cells. Type of data set: cell-based. The procedure: as §2
For another data set, the system named is SHI-1 xenografted mice. In words: Flank injection xenograft, SHI-1. Type of data set: in vivo, NSG mice. The conditions noted are these: 8 mg/kg daily i.p., compared with control (p<0.01 and p<0.001). How it is done:
(§3) Animal experiments were approved by the animal ethics committee of University of Padova and by Italian Minister of Health n° 512/2019-PR, and were executed in accordance with national guidelines and regulations. For flank injection experiments, six NOD-SCID interleukin-2 receptor gamma null (NSG) mice between 6 and 8 weeks of age were injected subcutaneously with 2×10^6 SHI-1, HL60 or THP-1 cells per flank-injection. Each mouse received two flank-injections. When tumors reached an area of 25 mm^2, mice were randomized in 2 groups (control and TDZ-treated), and daily treated with intraperitoneally (ip) administered TDZ 8 mg/kg. Experimental endpoint is reached when tumors reached an area of 250 mm^2.
(§4) TDZ was also used for further tests and particularly to test if it had same effects on leukemia growth in vivo in NOD/scid IL-2Rgnull (NSG) mice flank-injected with the SHI-1-t(6;11) or non-t(6;11) AML cell lines HL60 and THP-1. Xenografted tumor was allowed to grow up to ˜[…] before starting daily intraperitoneal (i.p.) TDZ administration (at 8 mg/kg concentration, below the previously described tolerated dose (Nagel D, Spranger S, Vincendeau M, Grau M, Raffegerst S, Kloo B, et al. Pharmacologic Inhibition of MALT1 Protease by Phenothiazines as a Therapeutic Approach for the Treatment of Aggressive ABC-DLBCL. Cancer Cell. 2012; 22:825-37)).

The test system of data set [8] is mice xenografted with HL60 or THP1. In words: Flank injection xenograft, HL60 or THP1. The format is in vivo, NSG mice. The conditions noted are these: 8 mg/kg daily i.p. How it is done: as §3, §4
The test system of data set [9] is t(6;11) SHI-1 cells. In words: Reactive oxygen species (CellROX) by flow cytometry. The format is cell-based. The conditions noted are these: 6, 16 and 24 h after treatment, compared with DMSO. How it is done:
ROS production was monitored by flow cytometry using CellROX Deep Red Reagent (C10422, Invitrogen) following manufacturer's instructions. Briefly, CellROX Deep Red Reagent was added at a final concentration of 5 μM to the cells and incubated for 30 minutes at 37° C. Cells were washed three times with PBS, and analyzed by flow cytometry using Cytoflex (Beckman Coulter).
For orientation: A flow cytometer gives signals particle by particle.

In data set [10] the test system is t(6;11) SHI-1 cells. Put plainly: Mitochondrial membrane potential (TMRE). Type of data set: cell-based. The conditions noted are these: 6 and 24 h after treatment, compared with DMSO. The procedure:
Mitochondrial membrane potential was measured by using TMRE Assay Kit (ab113852, Abcam), following manufacturer's instructions Briefly, TMRE 200 nM diluted in BSA 0.2%-PBS1× was added for 20′ at 37° C. Cells were analyzed by flow cytometry using FC500.

The next data set concerns SHI-1 cells. In words: Intracellular Ca2+ measurement (Fluo-4 AM) in SHI-1 cells. The format is cell-based. The note with it: for mechanism of Ca2+ influx: SHI-1, Ca2+-containing or Ca2+-free buffer. The procedure: (§5) Intracellular Ca^2+ levels were monitored by Fluo-4 AM fluorescence according to the manufacturer's instructions. Briefly, cells were washed in Hanks Balanced Salt Solutions, incubated with Fluo-4 AM 3 μM diluted in the working buffer (0.02% w/v Pluronic and 0.2 mM sulfinpyrazone, both sourced from Sigma-Aldrich-Merck, in 10 mM HEPES-buffered Hanks) for 30′ at RT. After incubation, cells were washed and resuspended in working buffer with CaCl2) 0.2 mg/I for 30′, to allow the de-esterification of Fluo-4 AM. Results were evaluated using the FC500 cytometer, and 2-photon microscope Thorlabs. In both experiments, the mean fluorescence intensity (MFI) was detected at basal condition, and up to 5 minutes after treatment.

The next data set relates to t(6;11) primary cells. In words: Intracellular Ca2+ measurement (Fluo-4 AM) in t(6;11) primary cells. Type of data set: cell-based. The conditions noted are these: primary cultures of t(6;11) AML. How it is done:
as §5

In another data set the test system is NSG mice. Put plainly: Stepping test (akinesia, neuroleptic effects). The format is in vivo. The conditions noted are these: for neuroleptic effects (akinesia, stepping test): i.p., 36.85 μmol/Kg (corresponding to 15 mg/kg of TDZ), 1 h after injection. The procedure:
Twelve NSG mice between 6 and 8 weeks of age were randomized in 4 groups (DMSO, thioridazine (TDZ), compound according to Example 1 (TDZ2) and compound according to Example 2 (TDZ6)), and treated every 2 days with growing doses of drugs, administered ip. […] The successive growing doses were 10 mg/kg, 12 mg/kg and finally 15 mg/kg, and the corresponding molar dose of the analogues. The stepping test was performed as previously described (Blume S R, Cass D K, Tseng K Y. Stepping test in mice: A reliable approach in determining forelimb akinesia in MPTP-induced Parkinsonism. Exp Neurol. 2009; 219:208-11) 1 h after drug injection, documented to be the time with the maximum TDZ serum concentration (Nagel D, Spranger S, Vincendeau M, Grau M, Raffegerst S, Kloo B, et al. Pharmacologic Inhibition of MALT1 Protease by Phenothiazines as a Therapeutic Approach for the Treatment of Aggressive ABC-DLBCL. Cancer Cell. 2012; 22:825-37). Briefly, the stepping test was performed on an open table and each trial was recorded using a digital video camera. The animal was allowed to settle at one edge of the table, then the experimenter would lift up the hind legs by pulling up on the tail, leaving only the forepaws touching the table, for a total distance of 1 m. The number of steps from both forepaws and the time used were computed.

`CSc1ccc2c(c1)N(CCC1CCCCN1C)c1ccccc1S2` (racemic) [TDZ, thioridazine]: the “apoptotic and dead cells” value in [1] (SHI-1, 24 h of treatment) is recorded as 60.8%; in data set [1] (SHI-1, 48 h of treatment), 84.3%. Also, in data set [1] (SHI-1, treatment 16 h after MLL-AF6 silencing, 8, 24 and 30 h after treatment), the “apoptosis level after MLL-AF6 silencing” value was “significant rescue of apoptosis level”. Also, the “apoptosis and cell death” value in data set [2] is on record as “almost no effects”. Moreover, the colony-forming ability entry (in the data set with t(6;11) SHI-1 cells [3]; in data set [7]) was “abrogated colony-forming ability” in each case. Besides, in [4], the clonogenic potential entry was “did not decrease the clonogenic potential”. For the same compound, the apoptosis result in data set [5] was “induced apoptosis selectively”. Further, the toxic effects result in data set [6] is “no toxic effects”. In the data set with SHI-1 xenografted mice, the “progression of tumor growth” value was “significantly reduced the progression of tumor growth”. Moreover, the tumor growth result in [8] is given as “not affected”. In addition, the “reactive oxygen species (ROS)” value with t(6;11) SHI-1 cells [9] was “highly increased”. For the same compound, the “mitochondrial depolarization (TMRE)” value in the data set with t(6;11) SHI-1 cells [10] is “mitochondrial depolarization”. Also, the “intracellular Ca2+, MFI (Fluo-4 AM, flow cytometry)” value in the data set with SHI-1 cells (0 minutes post treatment) came out at 68.9; in the data set on SHI-1 cells (1 minute post treatment), 91.8; in the data set on SHI-1 cells (3 minutes post treatment), 85.8; with SHI-1 cells (5 minutes post treatment), 85.4. Also, in the data set on SHI-1 cells (Ca2+-containing buffer (external Ca2+ present)), the “rise in intracellular Ca2+ concentration” value is reported as “triggers a rise in intracellular Ca^2+ concentration in the presence”. Moreover, the “Ca2+ intake after EGTA pre-treatment” value in the data set with SHI-1 cells (SHI-1, EGTA pre-treatment 30' before TDZ) is reported as “Ca^2+ intake was prevented”. Moreover, in the data set with t(6;11) primary cells, the “cytosolic Ca2+ influx” value is given as “increased cytosolic Ca^2+ influx”. The side effects result in the data set on NSG mice (8 mg/kg i.p. starting dose, previously tested) was “free of side effects”. Further, the “neuroleptic effects (akinesia, stepping test)” value (from here on “neuroleptic effects”) with NSG mice is “provokes severe central side effects”.
Consider `COCCOCCOCCN1CCCCC1CCN1c2ccccc2Sc2ccc(SC)cc21` (stereo not shown) [TDZ2], for which the “cytotoxic activity on t(6;11) AML cells (cell death)” value in [1] is “maintain cytotoxic activity”. Further, the “mechanism of Ca2+ influx” value with SHI-1 cells is “same mechanism of Ca^2+ influx of TDZ”. In the data set on NSG mice, the “neuroleptic effects” value is listed as “did not induce neuroleptic effects”.
In the case of `CSc1ccc2c(c1)N(CCC1CCCCN1CCOCCOCCN)c1ccccc1S2` (stereo not shown) [TDZ6], in data set [1], the “cytotoxic activity on t(6;11) AML cells (cell death)” value is reported as “maintain cytotoxic activity”. For the same compound, the “mechanism of Ca2+ influx” value in the data set on SHI-1 cells is “same mechanism of Ca^2+ influx of TDZ”. Besides, in the data set on NSG mice, the “neuroleptic effects” value is listed as “did not induce neuroleptic effects”.
